Assays:
EGFR^WT kinase = biological target: T1, EGFR^WT kinase (Homo sapiens, UniProt P00533); test: EGFR^WT kinase assay (ULight peptide / Eu-PT66 antibody detection); type: biochemical
T1 construct: purchased Carna Biosciences 08-115
From the text: (§1) Reagents and consumables: ULight™-labeled Ploy GT Peptide (Perkin Elmer, Cat. No. TRF-0100-M); ULight™-labeled JAK-1 (Try1023) Peptide (Perkin Elmer, Cat. No. TRF-0121-M); Eu-W1024-labeled Anti-Phosphotyrosine Antibody (PT66) (Perkin Elmer, Cat. No. AD0068); 10×Detection Buffer (Perkin Elmer, Cat. No. CR97-100); HER2 Kinase (Carna Biosciences, Cat. No. 08-016); EGFR kinase (Carna Biosciences, Cat. No. 08-115); HEPES (GIBCO, Cat. No. 15630-080); EGTA (Sigma, Cat. No. 03777-10G); EDTA (Sigma, Cat. No. EDS-100G); MgCl2 (Sigma, Cat. No. 63069-100ML); DTT (Sigma, Cat. No. 43816-10ML); Tween-20 (Sigma, Cat. No. P7949-100ML); DMSO (Life Science, Cat. No. 0231-500ML); 384-well plates (Perkin Elmer, Cat. No. 607290); multifunctional plate reader (Perkin Elmer, Cat. No. Envision)
(§2) Preparation of compound solution: The assay compound was dissolved in DMSO to form a 10 mM stock solution. Prior to use, the compound was diluted to 0.25 mM in DMSO (100 times the final concentration of the diluent) and then subjected to a 3-fold concentration gradient dilution to obtain a total of 11 concentrations. The solution was diluted with buffer to a diluent with 4× the final concentration when the drug was added.
(§3) EGFR^WT kinase assay: buffer was prepared, and 3.48 nM 4× EGFR kinase solution, 600 μM 4× ATP solution, and 400 nM 4×ULight™-labeled JAK-1 (Try1023) Peptide substrate solution was prepared using the buffer. After the preparation was completed, the enzyme was mixed with different concentrations of compounds pre-prepared by dilution, and the mixture was left to stand at room temperature for 5 min. Each concentration was performed in duplicate. The corresponding substrate and ATP were added and the mixture was reacted at room temperature for 120 minutes (with negative and positive controls). After completion of the reaction, PT66 detection antibody was added. The mixture was incubated at room temperature for 60 minutes, and then detected by Envision.
(§4) Data Calculation: the reading of well and inhibition rate were calculated using Excel, wherein reading of well=10000*(well EU665 value)/(well EU615 value), and inhibition rate=[(reading of positive control well−reading of assay well)/(reading of positive control well−reading of negative control well)]*100%. Compound concentrations and corresponding inhibition rates were input into GraphPad Prism for processing to calculate IC50 values.

HER2 kinase = biological target: T2, HER2 kinase (Homo sapiens, UniProt P04626); test: HER2 kinase assay (ULight peptide / Eu-PT66 antibody detection); type: biochemical
T2 construct: purchased Carna Biosciences 08-016
T2 sequence (P04626 23-1255): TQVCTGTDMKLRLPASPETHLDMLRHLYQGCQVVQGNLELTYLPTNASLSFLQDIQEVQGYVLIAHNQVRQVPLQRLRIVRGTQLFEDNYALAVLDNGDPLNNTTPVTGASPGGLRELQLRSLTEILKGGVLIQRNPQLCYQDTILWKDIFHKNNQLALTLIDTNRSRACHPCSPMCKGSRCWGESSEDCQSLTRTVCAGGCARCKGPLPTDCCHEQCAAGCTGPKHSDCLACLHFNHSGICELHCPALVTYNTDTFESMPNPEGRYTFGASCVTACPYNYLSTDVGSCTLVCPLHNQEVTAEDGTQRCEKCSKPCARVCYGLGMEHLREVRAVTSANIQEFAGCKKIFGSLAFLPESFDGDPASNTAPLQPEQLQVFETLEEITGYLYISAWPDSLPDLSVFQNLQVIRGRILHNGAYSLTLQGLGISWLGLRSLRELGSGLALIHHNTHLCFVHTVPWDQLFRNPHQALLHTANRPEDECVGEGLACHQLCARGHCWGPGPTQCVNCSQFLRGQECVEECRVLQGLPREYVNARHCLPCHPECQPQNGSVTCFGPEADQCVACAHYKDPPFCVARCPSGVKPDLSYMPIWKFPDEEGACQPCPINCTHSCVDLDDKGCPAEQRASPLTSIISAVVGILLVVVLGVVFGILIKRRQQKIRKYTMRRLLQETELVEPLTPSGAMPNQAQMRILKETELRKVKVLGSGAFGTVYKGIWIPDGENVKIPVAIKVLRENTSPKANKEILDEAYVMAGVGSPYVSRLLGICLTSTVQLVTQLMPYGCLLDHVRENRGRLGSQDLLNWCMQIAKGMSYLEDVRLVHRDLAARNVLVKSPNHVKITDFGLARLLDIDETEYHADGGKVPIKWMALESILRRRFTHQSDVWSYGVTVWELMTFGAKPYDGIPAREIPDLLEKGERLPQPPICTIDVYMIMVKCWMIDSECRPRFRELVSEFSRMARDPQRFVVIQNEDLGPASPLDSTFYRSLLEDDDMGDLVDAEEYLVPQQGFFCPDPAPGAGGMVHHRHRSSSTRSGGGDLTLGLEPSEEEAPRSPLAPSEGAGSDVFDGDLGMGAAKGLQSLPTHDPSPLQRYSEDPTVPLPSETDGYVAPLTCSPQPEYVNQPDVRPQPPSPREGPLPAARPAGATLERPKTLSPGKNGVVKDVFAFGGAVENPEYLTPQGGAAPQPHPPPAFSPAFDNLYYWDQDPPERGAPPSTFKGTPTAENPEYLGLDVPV
From the text: as §1, §2
as §3, with “HER2 kinase” for “EGFR^WT kinase”, “and 40” for “and 3.48”, “4× HER2” for “4× EGFR”, “solution, 40” for “solution, 600”, “4×ULight™-labeled Ploy GT” for “4×ULight™-labeled JAK-1 (Try1023)”, “solution were” for “solution was”
as §4

[1] = biological target: Ba/F3 EGFR D770_N771insSVD cells (Homo sapiens, UniProt P00533, DUP768-770, cells depend on it); test: Inhibition of cell proliferation, CTG method, Ba/F3 EGFR D770_N771insSVD; type: cell-based; settings: 72 hours, read-out: Ba/F3 EGFR D770_N771insSVD IC50
Ba/F3 EGFR D770_N771insSVD cells, sequence (P00533 with tags, fused parts or gaps DUP768-770): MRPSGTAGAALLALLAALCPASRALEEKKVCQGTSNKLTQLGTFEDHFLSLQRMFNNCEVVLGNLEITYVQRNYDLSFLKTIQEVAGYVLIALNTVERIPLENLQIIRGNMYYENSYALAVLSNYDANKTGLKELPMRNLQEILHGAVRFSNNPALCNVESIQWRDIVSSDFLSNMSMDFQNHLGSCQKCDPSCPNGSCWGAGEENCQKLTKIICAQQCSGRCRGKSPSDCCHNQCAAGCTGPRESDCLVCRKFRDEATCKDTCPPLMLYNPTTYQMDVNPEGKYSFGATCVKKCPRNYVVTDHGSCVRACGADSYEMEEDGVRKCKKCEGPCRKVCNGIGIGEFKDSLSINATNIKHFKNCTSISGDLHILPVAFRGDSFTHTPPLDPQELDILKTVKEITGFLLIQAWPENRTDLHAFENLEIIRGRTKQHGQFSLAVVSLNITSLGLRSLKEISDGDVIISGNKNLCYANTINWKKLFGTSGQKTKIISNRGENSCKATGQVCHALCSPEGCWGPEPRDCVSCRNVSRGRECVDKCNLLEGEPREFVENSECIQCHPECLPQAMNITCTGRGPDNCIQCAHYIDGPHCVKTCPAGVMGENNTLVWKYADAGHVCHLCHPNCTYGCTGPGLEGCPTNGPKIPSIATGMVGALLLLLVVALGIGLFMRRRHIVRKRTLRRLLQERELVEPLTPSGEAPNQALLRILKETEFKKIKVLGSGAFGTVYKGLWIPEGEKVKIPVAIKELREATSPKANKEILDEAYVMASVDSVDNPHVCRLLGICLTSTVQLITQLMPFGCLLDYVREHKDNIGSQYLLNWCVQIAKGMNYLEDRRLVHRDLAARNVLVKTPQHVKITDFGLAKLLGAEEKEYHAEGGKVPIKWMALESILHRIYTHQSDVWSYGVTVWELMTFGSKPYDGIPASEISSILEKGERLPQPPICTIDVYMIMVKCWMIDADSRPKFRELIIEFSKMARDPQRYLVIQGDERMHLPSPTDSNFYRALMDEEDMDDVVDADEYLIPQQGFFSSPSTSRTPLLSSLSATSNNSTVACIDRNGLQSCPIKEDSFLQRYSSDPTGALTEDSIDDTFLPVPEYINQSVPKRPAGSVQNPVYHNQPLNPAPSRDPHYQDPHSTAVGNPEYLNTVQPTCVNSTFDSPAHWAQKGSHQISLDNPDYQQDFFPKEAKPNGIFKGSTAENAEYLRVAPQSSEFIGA
From the text: (§5) The present application examined the in vitro anti-proliferative activity of the compounds of the present disclosure against in vitro cultured HCC-827, Ba/F3-EGFR-VIII and Ba/F3 EGFR D770_N771insSVD cell lines by CTG method.
(§6) Reagents and consumables: RPMI1640 (ThermoFisher, Cat. No. C11875500BT); DMEM (ThermoFisher, C11995500BT); fetal bovine serum (Hyclone, Cat. No. SV30087.03); 0.25% trypsin-EDTA (ThermoFisher, Cat. No. 25200072); penicillin-streptomycin (Hyclone, Cat. No. SV30010); DMSO (Life Science, Cat. No. 0231-500ML); CTG assay kit (Promega, Cat. No. G9243); 96-well plate (Corning, Cat. No. 3599); multifunctional plate reader (Perkin Elmer, Cat. No. Envision)
(§7) Cell lines: HCC-827 (from ATCC), Ba/F3-EGFR-VIII and Ba/F3 EGFR D770_N771insSVD (all from KYinno Biotechnology (Beijing) Co., Ltd.); all of the above cells were cultured with RPMI1640 medium containing 10% fetal bovine serum, 100 U/mL penicillin, and 100 μg/mL streptomycin in the culture process, and HCC-827 was cultured with DMEM medium containing 10% fetal bovine serum, 100 U/mL penicillin, and 100 μg/mL streptomycin.
(§8) • 1. The assay compound was dissolved with DMSO to form a stock solution and a gradient dilution was performed, followed by dilution with the corresponding medium to obtain a solution with 5-fold working concentration. • 2. Cells in logarithmic growth phase were adjusted to specific cell densities by dilution with culture medium, and 80 μL of cell suspension was added to a 96-well plate, such that plating densities of cells of HCC-827, Ba/F3-EGFR-VIII and Ba/F3 EGFR D770_N771insSVD were all 3000 cells/well. The cells of Ba/F3-EGFR-VIII and Ba/F3 EGFR D770_N771insSVD were used directly in the next step (treatment with compound), whereas the HCC-827 needed to be cultured overnight in a 37° C., 5% carbon dioxide gas incubator to adhere to the wall, and then treated with compounds. • 3. 20 μL of compound solution was added to each well of the 96-well plate that had been inoculated with cells. The highest concentration of the assayed compound was 10 μM, 4-fold serial dilution, a total of 9 concentrations, and duplicate wells. A control group without compound was also set up. • 4. The cells were cultured for another 72 hours, and then cell viability was detected by CTG assay kit. Signal values were read with a multifunctional plate reader (Perkin Elmer). GraphPad Prism software was used to create a dose-response curve and IC50 was calculated.

Ba/F3-EGFR-VIII cells = Ba/F3-EGFR-VIII cells (Homo sapiens, UniProt P00533, DELINS30-297G, cells depend on it); test: Inhibition of cell proliferation, CTG method, Ba/F3-EGFR-VIII; type: cell-based; settings: 72 hours, read-out: Ba/F3 EGFRvIII IC50
Ba/F3-EGFR-VIII cells, sequence (P00533 with tags, fused parts or gaps DELINS30-297G): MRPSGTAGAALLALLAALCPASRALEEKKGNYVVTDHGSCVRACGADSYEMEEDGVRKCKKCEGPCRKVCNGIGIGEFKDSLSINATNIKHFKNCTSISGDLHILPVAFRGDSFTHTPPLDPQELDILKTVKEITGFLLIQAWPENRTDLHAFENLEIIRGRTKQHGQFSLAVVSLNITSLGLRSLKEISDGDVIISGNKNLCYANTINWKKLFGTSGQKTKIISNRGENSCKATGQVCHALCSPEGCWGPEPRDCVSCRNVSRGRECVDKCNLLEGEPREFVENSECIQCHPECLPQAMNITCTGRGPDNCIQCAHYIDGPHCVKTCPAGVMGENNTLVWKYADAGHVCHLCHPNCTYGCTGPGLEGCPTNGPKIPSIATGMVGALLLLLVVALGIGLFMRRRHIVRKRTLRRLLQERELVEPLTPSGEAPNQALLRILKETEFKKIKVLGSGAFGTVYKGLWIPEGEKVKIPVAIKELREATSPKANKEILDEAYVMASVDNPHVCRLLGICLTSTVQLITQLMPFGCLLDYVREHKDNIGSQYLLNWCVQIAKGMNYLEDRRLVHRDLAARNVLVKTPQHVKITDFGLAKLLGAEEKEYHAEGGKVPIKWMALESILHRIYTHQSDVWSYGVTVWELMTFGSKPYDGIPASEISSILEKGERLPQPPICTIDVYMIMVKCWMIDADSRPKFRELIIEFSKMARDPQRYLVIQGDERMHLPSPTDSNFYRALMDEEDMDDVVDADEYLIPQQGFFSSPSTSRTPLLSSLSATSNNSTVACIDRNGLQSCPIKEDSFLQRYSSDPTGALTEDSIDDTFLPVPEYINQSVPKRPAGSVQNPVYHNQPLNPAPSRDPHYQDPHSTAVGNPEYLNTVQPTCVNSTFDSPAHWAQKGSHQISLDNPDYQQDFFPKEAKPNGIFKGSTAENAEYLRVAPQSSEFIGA
From the text: as §5, §6, §7, §8

HCC-827 cells = test: Inhibition of cell proliferation, CTG method, HCC-827; type: cell-based; settings: Homo sapiens, HCC827, 72 hours
From the text: as §5, §6, §7, §8

T1 sequence (P00533 25-1210): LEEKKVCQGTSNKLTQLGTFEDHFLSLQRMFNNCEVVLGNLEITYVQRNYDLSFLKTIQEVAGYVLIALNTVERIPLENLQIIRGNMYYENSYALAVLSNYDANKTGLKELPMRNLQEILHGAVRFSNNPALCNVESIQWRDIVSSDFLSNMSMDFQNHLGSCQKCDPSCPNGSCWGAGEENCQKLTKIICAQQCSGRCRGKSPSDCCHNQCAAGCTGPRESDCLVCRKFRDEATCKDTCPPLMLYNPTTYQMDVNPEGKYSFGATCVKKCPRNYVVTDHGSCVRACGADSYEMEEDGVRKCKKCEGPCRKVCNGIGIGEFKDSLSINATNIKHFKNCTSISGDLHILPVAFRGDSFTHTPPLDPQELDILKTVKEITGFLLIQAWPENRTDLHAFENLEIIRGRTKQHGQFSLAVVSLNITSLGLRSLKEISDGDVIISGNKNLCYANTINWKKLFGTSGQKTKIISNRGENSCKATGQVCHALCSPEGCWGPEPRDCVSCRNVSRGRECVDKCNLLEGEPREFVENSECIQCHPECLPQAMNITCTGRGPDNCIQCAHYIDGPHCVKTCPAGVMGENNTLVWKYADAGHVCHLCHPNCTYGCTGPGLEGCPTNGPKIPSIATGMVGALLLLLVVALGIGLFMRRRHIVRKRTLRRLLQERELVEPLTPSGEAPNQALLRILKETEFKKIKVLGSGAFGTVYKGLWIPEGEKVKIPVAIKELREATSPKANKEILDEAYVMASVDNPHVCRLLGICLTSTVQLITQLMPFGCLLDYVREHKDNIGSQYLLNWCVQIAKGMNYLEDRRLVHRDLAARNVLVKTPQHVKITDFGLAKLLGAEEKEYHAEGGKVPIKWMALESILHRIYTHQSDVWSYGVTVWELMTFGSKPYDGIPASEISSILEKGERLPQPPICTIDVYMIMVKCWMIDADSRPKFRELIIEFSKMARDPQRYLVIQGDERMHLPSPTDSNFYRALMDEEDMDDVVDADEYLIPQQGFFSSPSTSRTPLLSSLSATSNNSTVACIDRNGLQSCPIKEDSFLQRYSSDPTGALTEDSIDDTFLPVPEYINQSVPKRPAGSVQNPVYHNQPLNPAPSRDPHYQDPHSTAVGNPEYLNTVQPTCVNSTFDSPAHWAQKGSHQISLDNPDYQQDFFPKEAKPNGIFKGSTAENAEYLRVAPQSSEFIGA

Row | IC50 (EGFR^WT kinase) [nM] | IC50 (HER2 kinase) [nM] | GI50 [1] [nM] | GI50 (Ba/F3-EGFR-VIII cells) [nM] | IC50 (HCC-827 cells) [nM] | Compound
1 | 1 to 10 | 100 to 1000 | 50 to 500 | 50 to 500 | 5 to 50 | CC(C)Oc1c(NC(=O)/C=C/CN(C)C)ccc2ncnc(Nc3cccc(Cl)c3F)c12 [Example 10, (E)-N-(4-((3-chloro-2-fluorophenyl)amino)-5-isopropoxyquinazolin-6-yl)-4-(dimethylamino)but-2-enamide]
2 | ≤ 1 | 100 to 1000 | 50 to 500 | ≤ 5 | ≤ 5 | CN(C)C/C=C/C(=O)Nc1ccc2ncnc(Nc3cccc(Cl)c3F)c2c1OCCCO [Example 11, (E)-N-(4-((3-chloro-2-fluorophenyl)amino)-5-(3-hydroxypropoxy)quinazolin-6-yl)-4-(dimethylamino)but-2-enamide]
3 | ≤ 1 | 10 to 100 | 50 to 500 | ≤ 5 | ≤ 5 | CN(C)C/C=C/C(=O)Nc1ccc2ncnc(Nc3cccc(Cl)c3F)c2c1OCC(C)(C)O [Example 13, (E)-N-(4-((3-chloro-2-fluorophenyl)amino)-5-(2-hydroxy-2-methylpropoxy)quinazolin-6-yl)-4-(dimethylamino)but-2-enamide]
4 | ≤ 1 | 10 to 100 | 50 to 500 | 5 to 50 | ≤ 5 | CN(C)C/C=C/C(=O)Nc1ccc2ncnc(Nc3cccc(Cl)c3F)c2c1OCCCF [Example 15, (E)-N-(4-((3-chloro-2-fluorophenyl)amino)-5-(3-fluoropropoxy)quinazolin-6-yl)-4-(dimethylamino)but-2-enamide]
5 | ≤ 1 | 10 to 100 | 50 to 500 | 5 to 50 | ≤ 5 | CN(C)C/C=C/C(=O)Nc1ccc2ncnc(Nc3cccc(Cl)c3F)c2c1OCC(F)(F)F [Example 16, (E)-N-(4-((3-chloro-2-fluorophenyl)amino)-5-(2,2,2-trifluoroethoxy)quinazolin-6-yl)-4-(dimethylamino)but-2-enamide]
6 | ≤ 1 | 100 to 1000 | 50 to 500 | 5 to 50 | ≤ 5 | CN(C)C/C=C/C(=O)Nc1ccc2ncnc(Nc3cccc(Cl)c3F)c2c1OCC(F)F [Example 17, (E)-N-(4-((3-chloro-2-fluorophenyl)amino)-5-(2,2-difluoroethoxy)quinazolin-6-yl)-4-(dimethylamino)but-2-enamide]
7 | ≤ 1 | 100 to 1000 | 50 to 500 | 5 to 50 | ≤ 5 | CN(C)C/C=C/C(=O)Nc1ccc2ncnc(Nc3cccc(Cl)c3F)c2c1OCCC(F)(F)F [Example 18, (E)-N-(4-((3-chloro-2-fluorophenyl)amino)-5-(3,3,3-trifluoropropoxy)quinazolin-6-yl)-4-(dimethylamino)but-2-enamide]
8 | ≤ 1 | 10 to 100 | 50 to 500 | 5 to 50 | ≤ 5 | COc1c(NC(=O)/C=C/CN(C)C)ccc2ncnc(Nc3ccc(Cl)c(Cl)c3F)c12 [Example 19, (E)-N-(4-((3,4-dichloro-2-fluorophenyl)amino)-5-methoxyquinazolin-6-yl)-4-(dimethylamino)but-2-enamide]

Row | Compound | IC50 (EGFR^WT kinase) [nM] | IC50 (HER2 kinase) [nM] | GI50 [1] [nM] | GI50 (Ba/F3-EGFR-VIII cells) [nM] | IC50 (HCC-827 cells) [nM]
9 | CN(C)C/C=C/C(=O)Nc1ccc2ncnc(Nc3cccc(Cl)c3F)c2c1OCCC(C)(C)O [Example 14, (E)-N-(4-((3-chloro-2-fluorophenyl)amino)-5-(3-hydroxy-3-methylbutoxy)quinazolin-6-yl)-4-(dimethylamino)but-2-enamide] | 1 to 10 | 10 to 100 | 50 to 500 | 5 to 50 | ≤ 5

Reference: patent US20240400521A1, “QUINAZOLINE COMPOUND, COMPOSITION, AND APPLICATION THEREOF” (BEIJING SCITECH-MQ PHARMACEUTICALS LIMITED, priority 2021, published 2024)
